{"source": "patent US10787695B2", "about": "“Systems and methods for rapidly sensing microbial metabolism” (General Electric Company, priority 2017, dated 2020)", "tested_on": "bacteria", "experiment": "bacteria growth within chambers of a bacteria culture array with or without ampicillin (FIG. 33)", "format": "cell-based", "settings": "chambers that included ampicillin vs chambers without ampicillin; FIG. 33, graph 168", "from_the_text": "Furthermore, the bacteria culture arrays of the present disclosure may be used to assess the effect of drugs on bacteria samples. For instance, single cells of bacteria may be added the chambers of a bacteria culture array, and drugs and/or antimicrobial agents may be added to some or all of the chambers. In other words, single cell bacteria activity may be used to conduct population-based analysis of bacteria samples. With this in mind, FIG. 33 is a graph 168 showing bacteria growth within chambers of a bacteria culture array.\nVisual confirmation of the results shown in the graph 168 were also obtained. FIG. 34 is images […] of the chambers of the bacteria culture array."}
{"smiles": "CC1(C)S[C@@H]2[C@H](NC(=O)[C@H](N)c3ccccc3)C(=O)N2[C@H]1C(=O)O", "note": "[ampicillin]", "values": [{"measurement": "bacteria growth within chambers of a bacteria culture array", "value": "hindrance to growth"}]}
